US9193720B2, “Pyridin-3-yl acetic acid derivatives as inhibitors of human immunodeficiency virus replication” (priority 2014, dated 2015)
pEC50: −log10 of the molar value.

test system: NL-RLuc virus; assay: Inhibition of HIV Replication (NL-RLuc luciferase reporter virus in MT-2 cells); format: cell-based; conditions: Human immunodeficiency virus 1, MT2, 120 h
Description: Inhibition of HIV Replication:
A recombinant NL-RLuc proviral clone was constructed in which a section of the nef gene from NL4-3 was replaced with the Renilla Luciferase gene. This virus is fully infectious and can undergo multiple cycles of replication in cell culture. In addition, the luciferous reporter provides a simple and easy method for quantitating the extent of virus growth and consequently, the antiviral activity of test compounds. The plasmid pNLRLuc contains the proviral NL-Rluc DNA cloned into pUC18 at the PvuII site. The NL-RLuc virus was prepared by transfection of 293T cells with the plasmid pNLRLuc. Transfections were performed using the LipofectAMINE PLUS kit from Invitrogen (Carlsbad, Calif.) according to the manufacturer and the virus generated was titered in MT-2 cells. For susceptibility analyses, the titrated virus was used to infect MT-2 cells in the presence of compound, and after 5 days of incubation, cells were processed and quantitated for virus growth by the amount of expressed luciferase. Assay media was RPMI 1640 supplemented with 10% heat inactivated fetal bovine serum (FBS), 100 units/ml penicillin G/100 units/ml streptomycin, 10 mM HEPES buffer pH 7.55 and 2 mM L-glutamine. The results from at least 2 experiments were used to calculate the EC50 values. Luciferase was quantitated using the Dual Luciferase kit from Promega (Madison, Wis.). Susceptibility of viruses to compounds was determined by incubation in the presence of serial dilutions of the compound. The 50% effective concentration (EC50) was calculated by using the exponential form of the median effect equation where (Fa)=1/[1+(ED50/drug conc.)^m] (Johnson V A, Byington R T. Infectivity Assay. In Techniques in HIV Research. ed. Aldovini A, Walker B D. 71-76. New York: Stockton Press. 1990).

Compound | pEC50
Cc1nc(C)c([C@H](OC(C)(C)C)C(=O)O)c(N2CCC(C)(C)CC2)c1-c1ccc(OCc2cnc(Cl)s2)cc1 [Example 47, (S)-2-(tert-butoxy)-2-(5-(4-((2-chlorothiazol-5-yl)methoxy)phenyl)-4-(4,4-dimethylpiperidin-1-yl)-2,6-dimethylpyridin-3-yl)acetic acid] | 7.74
Cc1nc(C)c([C@H](OC(C)(C)C)C(=O)O)c(N2CC(C(C)C)C2)c1-c1ccc(OCCc2ccc(F)cc2)cc1 [Example 71, (S)-2-(tert-butoxy)-2-(5-(4-(4-fluoro-phenethoxy)phenyl)-4-(3-isopropylazetidin-1-yl)-2,6-dimethylpyridin-3-yl)acetic acid] | 5.50
Cc1nc(C)c([C@H](OC(C)(C)C)C(=O)O)c(N2CCC(C)(C)CC2)c1-c1ccc(OCC(C)(C)c2ccc(F)cc2)cc1 [Example 49, (S)-2-(tert-butoxy)-2-(4-(4,4-dimethylpiperidin-1-yl)-5-(4-(2-(4-fluorophenyl)-2-methylpropoxy)phenyl)-2,6-dimethylpyridin-3-yl)acetic acid] | 7.47
COc1cc(-c2c(C)nc(C)c([C@H](OC(C)(C)C)C(=O)O)c2N2CCC(C)(C)CC2)ccc1F [Example 66, (S)-2-(tert-butoxy)-2-(4-(4,4-dimethylpiperidin-1-yl)-5-(4-fluoro-3-methoxyphenyl)-2,6-dimethylpyridin-3-yl)acetic acid] | 6.85
Cc1nc(C)c([C@H](OC(C)(C)C)C(=O)O)c(N2CCC(C)(C)CC2)c1-c1ccc(OCC(C)c2ccc(F)cc2)cc1 (stereo partly drawn) [Example 32, (2S)-2-(tert-butoxy)-2-(4-(4,4-dimethylpiperidin-1-yl)-5-(4-(2-(4-fluorophenyl)propoxy)phenyl)-2,6-dimethylpyridin-3-yl)acetic acid] | 7.96
Cc1nc(C)c([C@H](OC(C)(C)C)C(=O)O)c(N2CCC(C)(C)CC2)c1-c1ccc(OC(C)C)c(Cl)c1 [Example 63, (S)-2-(tert-butoxy)-2-(5-(3-chloro-4-isopropoxyphenyl)-4-(4,4-dimethylpiperidin-1-yl)-2,6-dimethylpyridin-3-yl)acetic acid] | 6.92
Cc1nc(C)c([C@H](OC(C)(C)C)C(=O)O)c(N2CCC(C)(F)CC2)c1-c1ccc(OCCc2ccc(F)cc2)cc1 [Example 81, (S)-2-(tert-butoxy)-2-(4-(4-fluoro-4-methylpiperidin-1-yl)-5-(4-(4-fluorophenethoxy)phenyl)-2,6-dimethylpyridin-3-yl)acetic acid] | 8.40
Cc1nc(C)c([C@H](OC(C)(C)C)C(=O)O)c(N2CCC(C)(C)CC2)c1-c1ccc(OCc2ccccc2)nc1 [Example 3, (S)-2-(6′-(benzyloxy)-4-(4,4-dimethylpiperidin-1-yl)-2,6-dimethyl-[3,3′-bipyridin]-5-yl)-2-(tert-butoxy)acetic acid] | 7.70
CC(C)=C1CCN(c2c(-c3ccc(OCCc4ccc(F)cc4)cc3)c(C)nc(C)c2[C@H](OC(C)(C)C)C(=O)O)CC1 [Example 79, (S)-2-(tert-butoxy)-2-(5-(4-(4-fluorophenethoxy)phenyl)-2,6-dimethyl-4-(4-(propan-2-ylidene)piperidin-1-yl)pyridin-3-yl)acetic acid] | 6.54
Cc1nc(C)c([C@H](OC(C)(C)C)C(=O)O)c(N2CCC(C)(C)CC2)c1-c1ccc(OCc2ccncc2)cc1 [Example 56, (S)-2-(tert-butoxy)-2-(4-(4,4-dimethylpiperidin-1-yl)-2,6-dimethyl-5-(4-(pyridin-4-ylmethoxy)phenyl)pyridin-3-yl)acetic acid] | 8.70
Cc1nc(C)c([C@H](OC(C)(C)C)C(=O)O)c(N2CCC(C)(C)CC2)c1-c1ccc(OCCc2ccc(Cl)cc2)cc1 [Example 26, (S)-2-(tert-butoxy)-2-(5-(4-(4-chlorophenethoxy)phenyl)-4-(4,4-dimethylpiperidin-1-yl)-2,6-dimethylpyridin-3-yl)acetic acid] | 7.77
Cc1nc(C)c([C@H](OC(C)(C)C)C(=O)O)c(N2CCC(C)(C)CC2)c1-c1ccc(OCc2cccc(F)c2)cc1 [Example 7, (S)-2-(tert-butoxy)-2-(4-(4,4-dimethylpiperidin-1-yl)-5-(4-((3-fluorobenzyl)oxy)phenyl)-2,6-dimethylpyridin-3-yl)acetic acid] | 8.05
Cc1nc(C)c([C@H](OC(C)(C)C)C(=O)O)c(N2CCC(C)(C)CC2)c1-c1cnc(OCCc2ccc(F)cc2)nc1 [Example 58, (S)-2-(tert-butoxy)-2-(4-(4,4-dimethylpiperidin-1-yl)-5-(2-(4-fluoro-phenethoxy)pyrimidin-5-yl)-2,6-dimethylpyridin-3-yl)acetic acid] | 8.05
CCOc1ccc(-c2c(C)nc(C)c([C@H](OC(C)(C)C)C(=O)O)c2N2CCC(C)(C)CC2)cc1 [Example 10, (S)-2-(tert-butoxy)-2-(4-(4,4-dimethylpiperidin-1-yl)-5-(4-ethoxyphenyl)-2,6-dimethylpyridin-3-yl)acetic acid] | 7.57
Cc1nc(C)c([C@H](OC(C)(C)C)C(=O)O)c(N2CC(C)(C)C2)c1-c1ccc(OCCc2ccc(F)cc2)cc1 [Example 70, (S)-2-(tert-butoxy)-2-(4-(3,3-dimethylazetidin-1-yl)-5-(4-(4-fluorophenethoxy)phenyl)-2,6-dimethylpyridin-3-yl)acetic acid] | 5.52
COc1ccc(CCOc2ccc(-c3c(C)nc(C)c([C@H](OC(C)(C)C)C(=O)O)c3N3CCC(C)(C)CC3)cc2)cc1 [Example 15, (S)-2-(tert-butoxy)-2-(4-(4,4-dimethylpiperidin-1-yl)-5-(4-(4-methoxyphenethoxy)phenyl)-2,6-dimethylpyridin-3-yl)acetic acid] | 8.40
Cc1cc(CCOc2ccc(-c3c(C)nc(C)c([C@H](OC(C)(C)C)C(=O)O)c3N3CCC(C)(C)CC3)cc2)ccc1F [Example 12, (S)-2-(tert-butoxy)-2-(4-(4,4-dimethylpiperidin-1-yl)-5-(4-(4-fluoro-3-methylphenethoxy)phenyl)-2,6-dimethylpyridin-3-yl)acetic acid] | 8.30
Cc1nc(C)c([C@H](OC(C)(C)C)C(=O)O)c(N2CCC(C)(C)CC2)c1-c1ccc(OCCc2cc(F)c(F)cc2F)cc1 [Example 50, (S)-2-(tert-butoxy)-2-(4-(4,4-dimethylpiperidin-1-yl)-2,6-dimethyl-5-(4-(2,4,5-trifluorophenethoxy)phenyl)pyridin-3-yl)acetic acid] | 8.52
Cc1nc(C)c([C@H](OC(C)(C)C)C(=O)O)c(N2CCC(C)(C)CC2)c1-c1ccc(OCc2ccc(C(N)=O)cc2)cc1 [Example 19, (S)-2-(tert-Butoxy)-2-(5-(4-((4-carbamoylbenzyl)oxy)phenyl)-4-(4,4-dimethylpiperidin-1-yl)-2,6-dimethylpyridin-3-yl)acetic acid] | 7.92
COc1cc(-c2c(C)nc(C)c([C@H](OC(C)(C)C)C(=O)O)c2N2CCC(C)(C)CC2)ccc1C [Example 61, (S)-2-(tert-butoxy)-2-(4-(4,4-dimethylpiperidin-1-yl)-5-(3-methoxy-4-methylphenyl)-2,6-dimethylpyridin-3-yl)acetic acid] | 7.36
Cc1nc(C)c([C@H](OC(C)(C)C)C(=O)O)c(N2CCC(C)(C)CC2)c1-c1ccc(OCc2ccccc2)cc1 [Example 5, (S)-2-(5-(4-(benzyloxy)phenyl)-4-(4,4-dimethylpiperidin-1-yl)-2,6-dimethylpyridin-3-yl)-2-(tert-butoxy)acetic acid] | 7.96
Cc1nc(C)c(CCOc2ccc(-c3c(C)nc(C)c([C@H](OC(C)(C)C)C(=O)O)c3N3CCC(C)(C)CC3)cc2)s1 [Example 48, (S)-2-(tert-butoxy)-2-(4-(4,4-dimethylpiperidin-1-yl)-5-(4-(2-(2,4-dimethylthiazol-5-yl)ethoxy)phenyl)-2,6-dimethylpyridin-3-yl)acetic acid] | 9.00
Cc1nc(C)c([C@H](OC(C)(C)C)C(=O)O)c(N2CCC(C)(C)CC2)c1-c1ccc(OCCc2cccc3ccccc23)cc1 [Example 38, (S)-2-(tert-butoxy)-2-(4-(4,4-dimethylpiperidin-1-yl)-2,6-dimethyl-5-(4-(2-(naphthalen-1-yl)ethoxy)phenyl)pyridin-3-yl)acetic acid] | 8.22
Cc1nc(C)c([C@H](OC(C)(C)C)C(=O)O)c(N2CCC(C)(C)CC2)c1-c1ccc(OCCc2c(F)c(F)cc(F)c2F)cc1 [Example 51, (S)-2-(tert-butoxy)-2-(4-(4,4-dimethylpiperidin-1-yl)-2,6-dimethyl-5-(4-(2,3,5,6-tetrafluorophenethoxy)phenyl)pyridin-3-yl)acetic acid] | 8.22
Cc1ncsc1CCOc1ccc(-c2c(C)nc(C)c([C@H](OC(C)(C)C)C(=O)O)c2N2CCC(C)(C)CC2)cc1 [Example 40, (S)-2-(tert-butoxy)-2-(4-(4,4-dimethylpiperidin-1-yl)-2,6-dimethyl-5-(4-(2-(4-methylthiazol-5-yl)ethoxy)phenyl)pyridin-3-yl)acetic acid] | 9.00
